Measured values as given in PubChem BioAssay AID248 (DTP/NCI, 2004).
“And” between values parts separate entries of the source, which are not always exact repeats. Equal values may be shown once. Toxic doses and inconclusive results are not listed. Rule as the data show it: active = T/C of 150% or more; inactive = T/C below 125%.

Test system: L1210 leukemia ip in BDF1 mice, survival T/C
Experiment: NCI In Vivo Anticancer Drug Screen. Data for tumor model L1210 Leukemia (intraperitoneal) in B6D2F1 (BDF1) mice
Conditions: endpoint: mean survival time, higher = longer survival
Method in brief: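 Mice bearing the transplanted tumor received compound or vehicle. Survival of the treated group was divided by that of the vehicle-treated control group to give the ratio.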

[1] = dose: 100.0 mg/kg/injection, schedule: Q01DX001 (ip), vehicle: saline
[2] = dose: 200.0 mg/kg/injection, schedule: Q01DX001 (ip), vehicle: saline
[3] = dose: 400.0 mg/kg/injection, schedule: Q01DX001 (ip), vehicle: saline
[4] = dose: 100.0 mg/kg/injection, schedule: Q01DX009 (ip), vehicle: Klucel (hydroxypropylcellulose) (HPC)
[5] = dose: 200.0 mg/kg/injection, schedule: Q01DX009 (ip), vehicle: Klucel (hydroxypropylcellulose) (HPC)
[6] = dose: 400.0 mg/kg/injection, schedule: Q01DX009 (ip), vehicle: Klucel (hydroxypropylcellulose) (HPC)
[7] = dose: 100.0 mg/kg/injection, schedule: Q01DX009 (ip), vehicle: saline with Tween-80
[8] = dose: 100.0 mg/kg/injection, schedule: Q04DX003 (ip), vehicle: saline with Tween-80
[9] = dose: 200.0 mg/kg/injection, schedule: Q01DX009 (ip), vehicle: saline with Tween-80
[10] = dose: 200.0 mg/kg/injection, schedule: Q04DX003 (ip), vehicle: saline with Tween-80
[11] = dose: 400.0 mg/kg/injection, schedule: Q01DX009 (ip), vehicle: saline with Tween-80
[12] = dose: 400.0 mg/kg/injection, schedule: Q04DX003 (ip), vehicle: saline with Tween-80
[13] = dose: 100.0 mg/kg/injection, schedule: Q04DX003 (ip), vehicle: Klucel (hydroxypropylcellulose) (HPC)
[14] = dose: 200.0 mg/kg/injection, schedule: Q04DX003 (ip), vehicle: Klucel (hydroxypropylcellulose) (HPC)
[15] = dose: 400.0 mg/kg/injection, schedule: Q04DX003 (ip), vehicle: Klucel (hydroxypropylcellulose) (HPC)
[16] = dose: 100.0 mg/kg/injection, schedule: Q04DX002 (ip), vehicle: saline
[17] = dose: 200.0 mg/kg/injection, schedule: Q04DX002 (ip), vehicle: saline

Measured: T/C

Cc1ccc(S(=O)(=O)N2CCc3ccccc3C(=O)C2)cc1
inactive: [1] 97 % of control | [2] 94 % of control | [3] 94 % of control

CCOC(=O)c1cc(=O)c2cc(S(=O)(=O)F)ccc2[nH]1
inactive: [4] 95 % of control | [5] 97 % of control | [6] 97 % of control

CC(C)(O)C(=O)N/N=C/c1ccc(Cl)cc1Cl
inactive: dose: 25.0 mg/kg/injection, schedule: Q01DX009 (ip), vehicle: saline with Tween-80 102 % of control

O=C1c2ccccc2C(=O)N1C/C(Cl)=C/Cl
inactive: [7] 92 % of control | [8] 97 % of control | [9] 93 % of control | [10] 93 % of control | [11] 91 % of control | [12] 92 % of control

CC(/C=C\c1cccc([N+](=O)[O-])c1)=N\NC(=O)c1ccncc1
inactive: [8] 93 % of control | [10] 101 % of control | [12] 96 % of control

c1ccc2sc(SN3CCCCC3)nc2c1
inactive: dose: 100.0 mg/kg/injection, schedule: Q01DX001 (ip), vehicle: Klucel (hydroxypropylcellulose) (HPC) 103 % of control | dose: 200.0 mg/kg/injection, schedule: Q01DX001 (ip), vehicle: Klucel (hydroxypropylcellulose) (HPC) 97 % of control | dose: 400.0 mg/kg/injection, schedule: Q01DX001 (ip), vehicle: Klucel (hydroxypropylcellulose) (HPC) 94 % of control

CCOC(=O)CCc1nc2ccc3ccccc3c2c(=O)[nH]1
inactive: dose: 100.0 mg/kg/injection, schedule: Q04DX002 (ip), vehicle: Klucel (hydroxypropylcellulose) (HPC) 88 % of control | dose: 200.0 mg/kg/injection, schedule: Q04DX002 (ip), vehicle: Klucel (hydroxypropylcellulose) (HPC) 91 % of control | dose: 400.0 mg/kg/injection, schedule: Q04DX002 (ip), vehicle: Klucel (hydroxypropylcellulose) (HPC) 94 % of control

O=[N+]([O-])c1cc([N+](=O)[O-])c(NN(c2ccccc2)c2ccccc2)c([N+](=O)[O-])c1
inactive: dose: 12.5 mg/kg/injection, schedule: Q01DX Z (ip), vehicle: other 106 % of control | dose: 25.0 mg/kg/injection, schedule: Q01DX Z (ip), vehicle: other 102 % of control | [13] 92 % of control | [14] 88 % of control | [15] 91 % of control

O=C(Nc1ccc(C2=NCCN2)cc1)c1ccc(Br)c(C(=O)Nc2ccc(C3=NCCN3)cc2)c1
inactive: dose: 15.0 mg/kg/injection, schedule: Q01DX Z (ip), vehicle: saline 101 % of control | dose: 20.0 mg/kg/injection, schedule: Q01DX Z (ip), vehicle: water 102 % of control | dose: 30.0 mg/kg/injection, schedule: Q01DX Z (ip), vehicle: saline 117 % of control | dose: 30.0 mg/kg/injection, schedule: Q01DX Z (ip), vehicle: water 120 % of control

C=CS(=O)(=O)c1ccc([N+](=O)[O-])cc1
inactive: dose: 6.25 mg/kg/injection, schedule: Q04DX002 (ip), vehicle: saline with Tween-80 92 % of control | dose: 12.5 mg/kg/injection, schedule: Q04DX002 (ip), vehicle: saline with Tween-80 101 % of control | dose: 25.0 mg/kg/injection, schedule: Q04DX002 (ip), vehicle: saline with Tween-80 94 % of control

CCOC(=O)c1c(-c2ccc(OC)c(OC)c2OCc2ccccc2)c(C)c(C)[nH]c1=O
inactive: dose: 75.0 mg/kg/injection, schedule: Q01DX001 (ip), vehicle: carboxymethylcellulose (CMC) 102 % of control | dose: 150.0 mg/kg/injection, schedule: Q01DX001 (ip), vehicle: carboxymethylcellulose (CMC) 102 % of control | dose: 300.0 mg/kg/injection, schedule: Q01DX001 (ip), vehicle: carboxymethylcellulose (CMC) 102 % of control

Cc1ccccc1-n1c(C)cc(C(=O)O)c1C
inactive: [4] 110 % of control | [13] 102 % of control | [5] 93 % of control | [14] 106 % of control | [6] 98 % of control | [15] 88 % of control

CCCCCCC(c1ccccc1)c1ccccc1
inactive: [1] 100 % of control | [2] 97 % of control | [3] 100 % of control

O=[N+]([O-])/C=C/c1ccc([N+](=O)[O-])o1
inactive: dose: 3.0 mg/kg/injection, schedule: Q01DX001 (ip), vehicle: Klucel (hydroxypropylcellulose) (HPC) 106 % of control | dose: 6.0 mg/kg/injection, schedule: Q01DX001 (ip), vehicle: Klucel (hydroxypropylcellulose) (HPC) 98 % of control | dose: 12.0 mg/kg/injection, schedule: Q01DX001 (ip), vehicle: Klucel (hydroxypropylcellulose) (HPC) 92 % of control | dose: 12.5 mg/kg/injection, schedule: Q01DX001 (ip), vehicle: Klucel (hydroxypropylcellulose) (HPC) 107 % of control

Cc1ccc(Cl)cc1NC(=O)N(C)Cc1ccccc1
inactive: [7] 95 % of control and 104 % of control | dose: 100.0 mg/kg/injection, schedule: Q04DX002 (ip), vehicle: saline with Tween-80 94 % of control and 120 % of control | [8] 100 % of control | [9] 97 % of control and 104 % of control | dose: 200.0 mg/kg/injection, schedule: Q04DX002 (ip), vehicle: saline with Tween-80 98 % of control and 105 % of control | [10] 105 % of control | [11] 97 % of control and 108 % of control | dose: 400.0 mg/kg/injection, schedule: Q04DX002 (ip), vehicle: saline with Tween-80 98 % of control and 86 % of control | [12] 108 % of control

C/C=C/CC1C(=O)N(c2ccccc2)N(c2ccccc2)C1=O
inactive: dose: 25.0 mg/kg/injection, schedule: Q01DX009 (ip), vehicle: Klucel (hydroxypropylcellulose) (HPC) 106 % of control | dose: 50.0 mg/kg/injection, schedule: Q01DX009 (ip), vehicle: Klucel (hydroxypropylcellulose) (HPC) 95 % of control | [4] 97 % of control

CCCCCCCCCC[As](=O)(O)CCCCCCCCCC
inactive: dose: 50.0 mg/kg/injection, schedule: Q01DX001 (ip), vehicle: saline 107 % of control | [1] 103 % of control | [2] 103 % of control | [3] 115 % of control

CC(Cc1ccccc1)C(=O)c1ccccc1 (stereo unspecified)
inactive: dose: 100.0 mg/kg/injection, schedule: Q01DX001 (ip), vehicle: saline with Tween-80 102 % of control | [7] 102 % of control | dose: 200.0 mg/kg/injection, schedule: Q01DX001 (ip), vehicle: saline with Tween-80 94 % of control | [9] 97 % of control | dose: 400.0 mg/kg/injection, schedule: Q01DX001 (ip), vehicle: saline with Tween-80 94 % of control | [11] 98 % of control

CC(=O)OCCc1ccc(F)cc1
inactive: [16] 102 % of control | [17] 105 % of control | dose: 400.0 mg/kg/injection, schedule: Q04DX002 (ip), vehicle: saline 102 % of control

c1csc(-c2nc3ccccc3s2)c1
inactive: [7] 98 % of control | [8] 101 % of control | [9] 100 % of control | [10] 98 % of control | [11] 94 % of control | [12] 93 % of control

CCCCCCCCCCCCCCCCOc1ccc2ccccc2c1
inactive: [13] 97 % of control | [14] 102 % of control | [15] 91 % of control

C=C[CH2][Sn]([Br])([Br])[CH2]C=C
inactive: [7] 106 % of control | [9] 95 % of control | [11] 95 % of control

CCCC(CCN(C)C)(CNC(=O)CN(CC)CC)c1cccc2ccccc12 (stereo unspecified)
inactive: dose: 50.0 mg/kg/injection, schedule: Q04DX002 (ip), vehicle: saline 105 % of control | dose: 100.0 mg/kg/injection, schedule: Q01DX009 (ip), vehicle: saline 99 % of control | [16] 100 % of control | [17] 100 % of control
